Measured values published in US20160000796A1, “PHARMACEUTICAL COMPOSITION FOR USE IN PREVENTION OR TREATMENT OF CANCER” (priority 2013, published 2016).

Assays:
[1] = system: HTLV-1-infected cell line, MT2; assay: Combination of abacavir and topoisomerase inhibitor, cellular proliferation (MTS), MT2; assay type: cell-based; conditions: 48 hours, abacavir 10 or 25 μM plus CPT-11 200-400 pM, VP16 100-500 nM or ADR 10-50 nM
Protocol: An HTLV-1-infected cell line, MT2 cell, was used. Abacavir was added at a concentration of 0 μM (DMSO was added instead of abacavir), 10 μM, or 25 μM, and to each of the samples, CPT-11 (generic name: irinotecan) was further added at a concentration of 0 pM, 200 pM, 300 pM, or 400 pM. The cells were cultured for 48 hours. Separately, abacavir was added to MT2 cells at the concentrations as described above, and VP16 (generic name: etoposide) was further added to each of the samples at a concentration of 0 nM, 100 nM, 250 nM, or 500 nM, followed by 48 hours culture. Separately, abacavir was added to MT2 cells at the concentrations as described above, and ADR (generic name: doxorubicin) was further added at a concentration of 0 nM, 10 nM, 25 nM, or 50 nM, followed by 48 hours culture. MTS assay was performed using a reagent for cellular proliferation test, Aqueous One Solution Cell Proliferation (trade name, manufactured by Promega), in the same manner as in Example 1.
The graphs (A), (B), and (c) show the results of combinations of abacavir (ABC in the graph) and CPT-11, abacavir and VP16, and abacavir and ADR, respectively. In the graphs, the vertical axis indicates the proliferation rate calculated from the cell number when the cell number at the administration of the agents was regarded as 1.

[2] = system: ATL cell line, ED40515 (−); assay: PARP inhibitor combination, cellular proliferation (MTS), ED40515 (−); assay type: cell-based; conditions: olaparib 1-1000 μM with abacavir 10, 50 or 100 μM, 48 hours
Protocol: (§1) To an ATL cell line, ED40515 (−), or a non-ATL cell line, Jurkat, abacavir was added at a concentration of 0 μM (DMSO, was added instead of abacavir), 10 μM, 50 μM or 100 μM, and further a PARP inhibitor, olaparib, was added at a concentration of 0 μM (DMSO was added instead of olaparib), 1 μM, 10 μM, 100 μM or 1000 μM. The cells were cultured for 48 hours. MTS assay was performed using a reagent for cellular proliferation test, Aqueous One Solution Cell Proliferation (trade name, manufactured by Promega), in the same manner as in Example 1. The cellular proliferation was represented by a ratio relative to that of the control (solvent control) on Day 0 that was regarded as 1.

[3] = system: non-ATL cell line, Jurkat; assay: PARP inhibitor combination, cellular proliferation (MTS), Jurkat; assay type: cell-based, human; conditions: olaparib 1-1000 μM, 48 hours
Protocol: as §1

ATL cells = conditions: in vitro; Non Patent Literature 4; cited from earlier work
[4] = system: ATL cell line, ED40515 (−); assay: Chromosome double-strand break (Giemsa chromosome specimens), ED40515 (−); assay type: cell-based; conditions: 48 hours, abacavir 10-100 μM, zidovudine 10 or 100 μM
Protocol: Abacavir was added to an ATL cell line, ED40515 (−), at a concentration of 0 μM (DMSO was added instead of abacavir), 10 μM, 25 μM, 50 μM, 75 μM or 100 μM. After the 48 hours culture, the cells were fixed by Carnoy and stained with Giemsa to prepare chromosome specimens in accordance with conventional methods. Similarly, zidovudine was added to ED40515 (−) at a concentration of 10 μM or 100 μM, and abacavir was added to a non-ATL cell line, Jurkat, at a concentration of 100 μM, and chromosome specimens were prepared. Chromosome images (100 or more images per group) were observed by an optical microscope. The cells were determined as being positive for double-strand break (DSB) when at least one chromosome break was found.

COc1cccc2c1C(=O)c1c(O)c3c(c(O)c1C2=O)C[C@@](O)(C(=O)CO)C[C@@H]3O[C@H]1C[C@H](N)[C@H](O)[C@H](C)O1 [ADR, doxorubicin]
cellular proliferation (proliferation rate) in combination with abacavir [1]: significantly suppressed cellular proliferation

CCc1c2c(nc3ccc(OC(=O)N4CCC(N5CCCCC5)CC4)cc13)-c1cc3c(c(=O)n1C2)COC(=O)[C@]3(O)CC [CPT-11, irinotecan]
cellular proliferation (proliferation rate) in combination with abacavir [1]: significantly suppressed cellular proliferation

COc1cc([C@@H]2c3cc4c(cc3[C@@H](O[C@@H]3O[C@@H]5CO[C@@H](C)O[C@H]5[C@H](O)[C@H]3O)[C@H]3COC(=O)[C@H]23)OCO4)cc(OC)c1O [VP16, etoposide]
cellular proliferation (proliferation rate) in combination with abacavir [1]: significantly suppressed cellular proliferation

O=C(c1cc(Cc2n[nH]c(=O)c3ccccc23)ccc1F)N1CCN(C(=O)C2CC2)CC1 [olaparib]
effect of PARP inhibitor on suppression of cellular proliferation by abacavir [2]: enhanced the suppressive effect of abacavir | cellular proliferation [3]: did not affect cellular proliferation

Cc1cn([C@H]2C[C@H](N=[N+]=[N-])[C@@H](CO)O2)c(=O)[nH]c1=O [zidovudine]
anti-cancer effect against ATL cells (ATL cells): no anti-cancer effect | ratio of double-strand break-positive cells [4]: did not induce double-strand break
